Source: PubChem BioAssay (NCI)
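Five concentrations, 48 hours, 96-well plates. Abbreviation: GI50, concentration required for 50% inhibition of growth. TGI: total growth inhibition.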

Columns and labels:
Assay in all cases: inhibition of tumour cell growth, NCI panel, 48 h; in the data active = GI50 below about 0.43 µM; inactive = the rest
[1] = tested on: T-47D breast
[2] = tested on: UACC-62 melanoma
[3] = tested on: HCT-116 colon
[4] = tested on: OVCAR-5 ovarian
[5] = tested on: OVCAR-8 ovarian
[6] = tested on: RXF 393 renal
[7] = tested on: RPMI-8226 leukemia
[8] = tested on: OVCAR-3 ovarian
[9] = tested on: TK-10 renal
[10] = tested on: HT29 colon
[11] = tested on: 786-0 renal
[12] = tested on: UO-31 renal
[13] = tested on: SF-539 CNS
[14] = tested on: K-562 leukemia
[15] = tested on: MOLT-4 leukemia
[16] = tested on: NCI-H23 lung
[17] = tested on: HOP-62 NSCLC
[18] = tested on: SK-MEL-5 melanoma
[19] = tested on: PC-3 prostate
[20] = tested on: SN12C renal
[21] = tested on: M14 melanoma
[22] = tested on: SK-MEL-28 melanoma
[23] = tested on: EKVX NSCLC
[24] = tested on: A549 NSCLC
[25] = tested on: HOP-92 NSCLC
[26] = tested on: NCI-H522 lung
[27] = tested on: SNB-75 CNS
[28] = tested on: SW-620 colon
[29] = tested on: NCI-H226 lung
[30] = tested on: SK-MEL-2 melanoma
[31] = tested on: HS 578T breast
[32] = tested on: NCI-H460 lung
[33] = tested on: SF-295 CNS
[34] = tested on: DU-145 prostate
[35] = tested on: MDA-MB-231 breast
[36] = tested on: MDA-MB-435
[37] = tested on: SK-OV-3 ovarian
[38] = tested on: IGROV1 ovarian
[39] = tested on: BT-549 breast
[40] = tested on: KM12 colon
[41] = tested on: UACC-257 melanoma
[42] = tested on: A498 renal
[43] = tested on: CCRF-CEM leukemia
[44] = tested on: OVCAR-4 ovarian
[45] = tested on: CAKI-1 renal
[46] = tested on: ACHN renal
[47] = tested on: MCF7 breast
[48] = tested on: MALME-3M melanoma
[49] = tested on: SNB-19 CNS
[50] = tested on: SF-268 CNS
[51] = tested on: HCC-2998 colon
[52] = tested on: LOX IMVI melanoma
[53] = tested on: HCT-15 colon
[54] = tested on: U251 CNS
[55] = tested on: COLO 205 colon

COc1cccc(C2SC(C)C(=O)N2NC(=O)C(O)c2ccccc2)c1 (stereo not given)
> 100 µM: TGI [1] | TGI [2] | TGI [3] | TGI [4] | TGI [5] | TGI [6] | TGI [7] | TGI [8] | TGI [9] | TGI [10] | TGI [11] | TGI [12] | TGI [13] | TGI [14] | TGI [15] | TGI [16] | TGI [17] | TGI [18] | TGI [19] | TGI [20] | TGI [21] | TGI [22] | TGI [23] | TGI [24] | TGI [25] | TGI [26] | TGI [27] | TGI [28] | TGI [29] | TGI [30] | TGI [31] | TGI [32] | TGI [33] | TGI [34] | TGI [35] | TGI [36] | TGI [37] | TGI [38] | TGI [39] | TGI [40] | TGI [41] | TGI [42] | TGI [43] | TGI [44] | TGI [45] | TGI [46] | TGI [47] | TGI [48] | TGI [49] | TGI [50] | TGI [51] | TGI [52] | TGI [53] | TGI [54] | TGI [55]
inactive: GI50 [1] > 100 µM | GI50 [2] > 100 µM | GI50 [3] > 100 µM | GI50 [4] > 100 µM | GI50 [5] > 100 µM | GI50 [6] > 100 µM | GI50 [7] > 100 µM | GI50 [8] > 100 µM | GI50 [9] > 100 µM | GI50 [10] > 100 µM | GI50 [11] > 100 µM | GI50 [12] > 100 µM | GI50 [13] > 100 µM | GI50 [14] > 100 µM | GI50 [15] > 100 µM | GI50 [16] > 100 µM | GI50 [17] > 100 µM | GI50 [18] > 100 µM | GI50 [19] > 100 µM | GI50 [20] > 100 µM | GI50 [21] > 100 µM | GI50 [22] > 100 µM | GI50 [23] > 100 µM | GI50 [24] > 100 µM | GI50 [25] > 100 µM | GI50 [26] > 100 µM | GI50 [27] > 100 µM | GI50 [28] > 100 µM | GI50 [29] > 100 µM | GI50 [30] > 100 µM | GI50 [31] > 100 µM | GI50 [32] > 100 µM | GI50 [33] > 100 µM | GI50 [34] > 100 µM | GI50 [35] > 100 µM | GI50 [36] > 100 µM | GI50 [37] > 100 µM | GI50 [38] > 100 µM | GI50 [39] > 100 µM | GI50 [40] > 100 µM | GI50 [41] > 100 µM | GI50 [42] > 100 µM | GI50 [43] > 100 µM | GI50 [44] 41.7 µM | GI50 [45] > 100 µM | GI50 [46] > 100 µM | GI50 [47] > 100 µM | GI50 [48] > 100 µM | GI50 [49] > 100 µM | GI50 [50] > 100 µM | GI50 [51] > 100 µM | GI50 [52] > 100 µM | GI50 [53] > 100 µM | GI50 [54] > 100 µM | GI50 [55] > 100 µM
